This test has as its system Escherichia coli W4573. Nature of the test: Test A: MIC-based assay for efflux pump inhibition (enhancement of minocycline MIC). Type of test: cell-based. To be noted: ratio of minocycline MIC in absence to MIC in presence of test compound, test compound at 12.5 ug/ml (27-48 μM). The method, then:
Test A. Minimum Inhibitory Concentration (MIC)-Based Assay for Efflux Pump Inhibition:
MIC-based assays were used to evaluate the impact of potential efflux pump inhibiting (EPI) compounds on the MIC of minocycline, an antibiotic known to be a substrate for Gram-negative bacterial efflux pumps. The assays were conducted in accordance with Clinical and Laboratory Standards Institute (CLSI) guidelines for broth microdilution, with the modification that assays were conducted in the presence and absence of the test EPI compounds. When present, the EPI compounds were added to cation-adjusted Mueller-Hinton (CAMH) broth (Becton, Dickinson and Co., Franklin Lakes, N.J.) at a final concentration of 12.5 µg/mL.
Log-phase Gram-negative bacteria were added to 96-well microtiter plates (at 5×10^5 colony forming units (CFU) per mL) containing two-fold serial dilutions of minocycline in CAMH broth either in the absence or presence of the test EPI compounds. In all assays, each serial dilution of minocycline was present in duplicate. The final volume in each well was 0.1 mL, and the microtiter plates were incubated aerobically for 24 hours at 37° C. Bacterial growth was then monitored by measuring the optical density (OD) at 600 nm using a VersaMax® plate reader (Molecular Devices, Inc., Sunnyvale, Calif.), with the MIC being defined as the lowest compound concentration at which growth was ≥90% inhibited compared to antibiotic-free control. The following Gram-negative bacterial strains were included in these assays:
Escherichia coli W4573, ATCC 25922, and ATCC BAA-201 (an extended spectrum […] (ESBL)-producing strain that expresses the TEM-3 β-lactamase).
The efflux pump mutant E. coli strain N43 (acrA1) was used as a positive control.
The enhancement is the ratio of the minocycline MIC in the absence of test compound to the minocycline MIC in the presence of test compound.
Take `NCCC[C@H](N)CNC(=O)C(CCc1ccccc1)CCc1ccccc1` [Example 1, (S)—N-(2,5-diaminopentyl)-2-phenethyl-4-phenylbutanamide]: the Enhancement came to 8.
For `NCCC[C@@H](N)CNC(=O)C(CCc1ccccc1)CCc1ccccc1` [Example 2, (R)—N-(2,5-diaminopentyl)-2-phenethyl-4-phenylbutanamide], the Enhancement was determined as 64.
For `NCC[C@H](N)CNC(=O)C(CCc1ccccc1)CCc1ccccc1` [Example 3, (S)—N-(2,4-diaminobutyl)-2-phenethyl-4-phenylbutanamide], the Enhancement amounted to 8.
Consider `NC[C@H](N)CNC(=O)C(CCc1ccccc1)CCc1ccccc1` [Example 4, (S)—N-(2,3-diaminopropyl)-2-phenethyl-4-phenylbutanamide], for which the Enhancement is reported as 1.
As for `NC[C@@H](N)CCCNC(=O)C(CCc1ccccc1)CCc1ccccc1` [Example 5, (S)—N-(4,5-diaminopentyl)-2-phenethyl-4-phenylbutanamide], the figure is 2; as for `NCCC[C@H](N)CNC(=O)C(CCc1ccccc1)Cc1ccccc1` (stereo partly drawn) [Example 6, 2-benzyl-N—((S)-2,5-diaminopentyl)-4-phenylbutanamide], 4; as for `NCCC[C@H](N)CNC(=O)C(Cc1ccccc1)Cc1ccccc1` [Example 7, (S)-2-benzyl-N-(2,5-diaminopentyl)-3-phenylpropanamide], 8.
As for `NCCC[C@H](N)CNC(=O)C(c1ccccc1)c1ccccc1` [Example 8, (S)—N-(2,5-diaminopentyl)-2,2-diphenylacetamide], the Enhancement was 4.
The result for `NCCC[C@H](N)CNC(=O)CC(c1ccccc1)c1ccccc1` [Example 9, (S)—N-(2,5-diaminopentyl)-3,3-diphenylpropanamide] reads 8.
Regarding `NCCC[C@H](N)CNC(=O)CCCc1ccccc1` [Example 10, (S)—N-(2,5-diaminopentyl)-4-phenylbutanamide], the Enhancement worked out at 4.
The result for `COc1ccc(CCC(CCc2ccccc2)C(=O)NC[C@@H](N)CCCN)cc1` (stereo partly shown) [Example 11] reads 4; that for `NCCC[C@H](N)CNC(=O)CC(Cc1ccccc1)Cc1ccccc1` [Example 12, (S)-3-Benzyl-N-(2,5-diaminopentyl)-4-phenylbutanamide], 16.
Turning to `NCCC[C@H](N)CNC(=O)CC(CCc1ccccc1)CCc1ccccc1` [Example 13, (S)—N-(2,5-diaminopentyl)-3-phenethyl-5-phenylpentanamide], the Enhancement came out at 512.

The record behind these values is patent US9950993B2 (Rutgers, The State University of New Jersey, priority 2015, dated 2018).
